Measurements from patent US20260337231A1, “METHOD FOR PRODUCING CYCLIC PEPTIDE COMPOUND” (CHUGAI SEIYAKU KABUSHIKI KAISHA, priority 2023, published 2026).

Columns and labels:
[1] = Crystal form after drying under reduced pressure (powder X-ray diffraction); assay type: physicochemical
Protocol: The amorphous powder of Compound 1 (10.7 mg) was dissolved in 2-propanol (32.1 μL), and about 0.1 mg of the crystal obtained in Example 3-1 was added. Thereafter, heptane ([…]) was added, and the mixture was shaken at room temperature for 3 hours. Furthermore, heptane (21.4 μL) was added, and after shaking at room temperature for 2 hours, heptane (21.4 μL) was added and the mixture was shaken at room temperature for 3 hours. Heptane (21.4 μL) was further added, and the mixture was shaken at room temperature for 15 hours, thereby obtaining a crystal (form E) of compound 1. Single crystal X-ray structural analysis was performed on the obtained crystal (Example 4-8), and it was confirmed to be a 2-propanol/heptane/water solvate. […] The obtained crystal (form E) was dried under reduced pressure, and powder X-ray diffraction measurement was performed (Example 4-3).
The amorphous powder of Compound 1 (9.0 mg) was dissolved in ethanol (27.0 μL), heptane (27.0 μL) was added, and the mixture was shaken at room temperature for 4 minutes. About 0.1 mg of the crystal obtained in Example 3-4 was added, and the mixture was shaken at room temperature for 1 minute to obtain a crystal of compound 1. Single crystal X-ray structural analysis was performed (Example 4-9), confirming that the obtained crystal is an ethanol/water solvate crystal (form H). […] The obtained crystal (form H) was dried under reduced pressure, and powder X-ray diffraction measurement was performed (Example 4-3).
The amorphous powder of Compound 1 (10.9 mg) was dissolved in ethyl acetate (32.7 μL), heptane (32.7 μL) was added, and the mixture was shaken at room temperature for 4 minutes. About 0.1 mg of the crystal obtained in Example 3-5 was added, and the mixture was shaken at room temperature for 1 minute, thereby obtaining a crystal of compound 1. Single crystal X-ray structural analysis was performed (Example 4-9), confirming that the obtained crystal is an ethyl acetate/water solvate crystal (form C). […] The obtained crystal (form C) was dried under reduced pressure, and powder X-ray diffraction measurement was performed (Example 4-3).
The crystal (form A, 6.8 mg) of compound 1 obtained in Example 3-8 was dissolved in dimethyl sulfoxide (0.12 mL), and the mixture was shaken and stirred at room temperature for 13 days. Furthermore, water (1 μL) was added and the mixture was stirred at room temperature for 34 days to obtain a crystal of compound 1. The obtained crystal was confirmed to be a dimethyl sulfoxide/water solvate crystal (form L) by single crystal X-ray structural analysis (Example 4-8). […] Powder X-ray diffraction measurement (Example 4-3) on the crystal obtained by performing the same procedure confirmed that the form L is a solvate crystal that is amorphized by drying under reduced pressure.
To the crystal (form B, 45.8 mg) of compound 1, propylene glycol (0.12 mL) was added, and the mixture was stirred at room temperature for 5 minutes. Furthermore, propylene glycol (0.020 mL) was added, and the mixture was stirred at 40° C. for 5 minutes. Thereafter, propylene glycol (0.070 mL) was added, the mixture was stirred at 40° C. for 5 minutes and further allowed to stand still for 5 hours. Propylene glycol (0.070 mL) was further added, and the mixture was stirred at 35° C. for overnight. Then, propylene glycol (0.070 mL) was added and the mixture was stirred for about 1 minute to obtain a wet powder of compound 1. […]

[2] = Thermogravimetry-differential thermal analysis (TG-DTA); assay type: physicochemical; details: 10° C./min, nitrogen, at 157° C., Example 3-17
Protocol: The thermogravimetry-differential thermal analysis (TG-DTA) for Example 3-8, Example 3-9, Example 3-12, Example 3-13, Example 3-17, and Example 3-19 was performed under the following conditions. • Measurement apparatus: STA7200RV+AS-3T (manufactured by Hitachi High-Tech Science Corporation) • Measurement range: 30 to 350° C. • Heating rate: 10° C./min • Atmosphere: nitrogen • Measurement: The sample was weighed in an open aluminum pan and covered with a mesh to perform the measurement.

For `CCC[C@H]1C(=O)N[C@@H]([C@@H](C)CC)C(=O)N2CCC[C@H]2C(=O)N(C)[C@H]2C/C=C\CCN(C2=O)[C@@H](Cc2ccc(C(F)(F)F)cc2)C(=O)N(C)CC(=O)N[C@@H](CCc2ccc(C(F)(F)F)c(OC)c2)C(=O)N2C[C@H](OCC)C[C@H]2C(=O)N(C)C2(CCC2)C(=O)N(C)[C@@H](C2CCCC2)C(=O)N(C)[C@H](C(=O)N(C)C)CC(=O)N1C` [form C], the “transformation after drying under reduced pressure” value ([1]; drying under reduced pressure) was “transformed into the hydrate crystal (form B)”.
In the case of `CCC[C@H]1C(=O)N[C@@H]([C@@H](C)CC)C(=O)N2CCC[C@H]2C(=O)N(C)[C@H]2C/C=C\CCN(C2=O)[C@@H](Cc2ccc(C(F)(F)F)cc2)C(=O)N(C)CC(=O)N[C@@H](CCc2ccc(C(F)(F)F)c(OC)c2)C(=O)N2C[C@H](OCC)C[C@H]2C(=O)N(C)C2(CCC2)C(=O)N(C)[C@@H](C2CCCC2)C(=O)N(C)[C@H](C(=O)N(C)C)CC(=O)N1C` [form E], the “transformation after drying under reduced pressure” value ([1]; drying under reduced pressure) is reported as “transformed into the hydrate crystal (form A)”.
With `CCC[C@H]1C(=O)N[C@@H]([C@@H](C)CC)C(=O)N2CCC[C@H]2C(=O)N(C)[C@H]2C/C=C\CCN(C2=O)[C@@H](Cc2ccc(C(F)(F)F)cc2)C(=O)N(C)CC(=O)N[C@@H](CCc2ccc(C(F)(F)F)c(OC)c2)C(=O)N2C[C@H](OCC)C[C@H]2C(=O)N(C)C2(CCC2)C(=O)N(C)[C@@H](C2CCCC2)C(=O)N(C)[C@H](C(=O)N(C)C)CC(=O)N1C` [form H] the “transformation after drying under reduced pressure” value ([1]; drying under reduced pressure) was “transformed into the hydrate crystal (form B)”.
For `CCC[C@H]1C(=O)N[C@@H]([C@@H](C)CC)C(=O)N2CCC[C@H]2C(=O)N(C)[C@H]2C/C=C\CCN(C2=O)[C@@H](Cc2ccc(C(F)(F)F)cc2)C(=O)N(C)CC(=O)N[C@@H](CCc2ccc(C(F)(F)F)c(OC)c2)C(=O)N2C[C@H](OCC)C[C@H]2C(=O)N(C)C2(CCC2)C(=O)N(C)[C@@H](C2CCCC2)C(=O)N(C)[C@H](C(=O)N(C)C)CC(=O)N1C` [form L], the “transformation after drying under reduced pressure” value ([1]; drying under reduced pressure) was “amorphized”.
For `CCC[C@H]1C(=O)N[C@@H]([C@@H](C)CC)C(=O)N2CCC[C@H]2C(=O)N(C)[C@H]2C/C=C\CCN(C2=O)[C@@H](Cc2ccc(C(F)(F)F)cc2)C(=O)N(C)CC(=O)N[C@@H](CCc2ccc(C(F)(F)F)c(OC)c2)C(=O)N2C[C@H](OCC)C[C@H]2C(=O)N(C)C2(CCC2)C(=O)N(C)[C@@H](C2CCCC2)C(=O)N(C)[C@H](C(=O)N(C)C)CC(=O)N1C` [form M], the “transformation after drying under reduced pressure” value ([1]; dried under reduced pressure at room temperature for overnight) was “transformed into a form N crystal”.
In the case of `CCC[C@H]1C(=O)N[C@@H]([C@@H](C)CC)C(=O)N2CCC[C@H]2C(=O)N(C)[C@H]2C/C=C\CCN(C2=O)[C@@H](Cc2ccc(C(F)(F)F)cc2)C(=O)N(C)CC(=O)N[C@@H](CCc2ccc(C(F)(F)F)c(OC)c2)C(=O)N2C[C@H](OCC)C[C@H]2C(=O)N(C)C2(CCC2)C(=O)N(C)[C@@H](C2CCCC2)C(=O)N(C)[C@H](C(=O)N(C)C)CC(=O)N1C` [form N], the weight reduction [2] is reported as “about 11%”.
